Data set [1] concerns Pseudomonas aeruginosa MB 5919. Nature of the data set: Minimum inhibitory concentrations of sentinel antibiotics (strain quality control). The data set is classed as cell-based. Particulars: OprD+, efflux+, parental strain.
Data set [2] relates to Pseudomonas aeruginosa MB 5890. The description is as above. The data set is classed as cell-based. Particulars: OprD+, efflux−, parental strain.
Data set [3] has as its system MB 5890 Trans pFlp-Vim2 plasmid. The data set is classed as cell-based, Pseudomonas aeruginosa. Particulars: OprD+, efflux−.
A further data set addresses IMP-1 (Serratia marcescens, UniProt P52699). The data set is classed as biochemical. Conditions: CCF2-FA substrate, 2 hours at 25° C. On the procedure:
(§1) Enzyme Activity: Determination of IC50
(§2) The Class B enzyme activities were measured in the presence of the test inhibitor in a fluorescence assay against a commercially available substrate consisting of a cephalosporin core linking 7-hydroxycoumarin to fluorescein (CCF2-FA). […] In a 384-well microplate, the test inhibitor was incubated with the metallo-β-lactamase enzyme and the substrate for 2 hours at 25° C. […] The IC50 value was determined from semi-logarithmic plots of enzyme inhibition versus inhibitor concentration, with a curve generated using a 4-parameter fit.

For another data set, the target named is NDM-1 (Klebsiella pneumoniae, UniProt C7C422). The data set is classed as biochemical. Particulars: CCF2-FA substrate, 2 hours at 25° C. On the procedure: as §1, §2
Sequence of NDM-1 (C7C422 whole entry, looked up, species assumed): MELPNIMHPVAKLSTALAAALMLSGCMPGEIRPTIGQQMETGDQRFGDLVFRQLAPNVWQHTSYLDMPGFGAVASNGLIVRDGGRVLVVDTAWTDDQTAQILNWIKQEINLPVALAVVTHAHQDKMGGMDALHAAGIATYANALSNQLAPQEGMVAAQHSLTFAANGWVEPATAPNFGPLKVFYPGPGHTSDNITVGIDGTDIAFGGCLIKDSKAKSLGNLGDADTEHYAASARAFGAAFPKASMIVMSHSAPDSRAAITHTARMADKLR
A further data set has as its target VIM-1 (Pseudomonas aeruginosa (strain ATCC 15692 / DSM 22644 / CIP 104116 / JCM 14847 / LMG 12228 / 1C / PRS 101 / PAO1), UniProt A0A0F7KYQ8). The data set is classed as biochemical. Conditions: CCF2-FA substrate, 2 hours at 25° C. On the procedure: as §1, §2
For data set [4], the system named is Escherichia coli expressing NDM-1 (CLB30005, CLB30016). Format: cell-based. Particulars: with imipenem 1 μg/ml; 95% inhibition of bacterial growth. In outline:
(§3)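 Growth read by absorbance after 22–24 h at 35 °C in CAMHB, with test compound alone or combined with 1 μg/ml imipenem. Inocula came from overnight 35 °C blood-agar colonies, set to a defined OD600 and diluted 1:100. Value is the inhibitor concentration giving synergy.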

The subject of data set [5] is Pseudomonas aeruginosa PAO1 MB9798 (efflux+, IMP-1). Conditions: for Efflux ratio: ratio MITC95 PA 9798/MITC95 PA 9799; for P. aeruginosa expressing IMP-1, efflux + (MB9798) MITC95: restores susceptibility to imipenem at 2 μg/mL in the presence of a class A. In outline:
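Isogenic PAO1 pair (efflux+ MB9798, efflux− MB9799, both IMP-1) tested by microbroth MIC with fixed imipenem and/or ceftazidime, usually at CLSI breakpoint, plus fixed class A/C inhibitor against AmpC. MBL inhibitor titrated; concentration restoring susceptibility recorded and fold difference between strains taken as efflux extent.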

Data set [6] concerns Pseudomonas aeruginosa PAO1 MB9799 (efflux-, IMP-1). Format: cell-based. Conditions: C, D serine β-lactamase inhibitor closely related to relebactam; for P. aeruginosa expressing IMP-1, efflux − (MB9799) MITC95: restores susceptibility to imipenem at 2 μg/mL in the presence of a class A, efflux − strain MB9799. The text has this: The strain background was Pseudomonas aeruginosa PAO1.
The strain set was then used as a pair to determine the effect of metallo-β-lactamase inhibitors of Formula I on the MIC of imipenem and/or ceftazidime. A fixed concentration of antibiotic was included in standard microbroth MIC tests, usually at the CLSI (Clinical and Laboratory Standards Institute) breakpoint concentration. A fixed amount of a class A/C beta-lactamase inhibitor was also included to inhibit the resident Pseudomonas AmpC enzyme. A serial titration of the metallo-β-lactamase inhibitor was included and the concentration of metallo-β-lactamase inhibitor which restores susceptibility of the strain to the included antibiotic was recorded. That concentration of metallo-β-lactamase inhibitor was then compared between the two strains to determine the fold difference between the efflux + (MB9798) and efflux − (MB9799) strains. This was taken as an indication of the extent to which the MBLi is subject to efflux.

The subject of data set [7] is Klebsiella pneumoniae expressing VIM-1 (IHMA599644). The data set is classed as cell-based. Conditions: with imipenem 1 μg/ml; 95% inhibition of bacterial growth. In outline: as §3
Data set [8] concerns Serratia marcescens expressing IMP-1 (CL5741). The data set is classed as cell-based. Particulars: with imipenem 1 μg/ml; 95% inhibition of bacterial growth. The method in brief:
as §3

In data set [9] the test system is MB 5919 Trans IMP1 plasmid (MB 9798). Format: cell-based, Pseudomonas aeruginosa. Particulars: OprD+, efflux+.
The subject of data set [10] is MB 5890 Trans IMP1 plasmid (MB 9799). The data set is classed as cell-based, Pseudomonas aeruginosa. Conditions: OprD+, efflux−.
[11] abbreviates: C, D serine β-lactamase inhibitor closely related to relebactam, efflux + strain MB9798.

≈ marks a conversion by molar mass, not a printed value. Read-outs that look alike come from different tables or passages of the source.

Sequence of IMP-1 (P52699 whole entry, looked up, species assumed): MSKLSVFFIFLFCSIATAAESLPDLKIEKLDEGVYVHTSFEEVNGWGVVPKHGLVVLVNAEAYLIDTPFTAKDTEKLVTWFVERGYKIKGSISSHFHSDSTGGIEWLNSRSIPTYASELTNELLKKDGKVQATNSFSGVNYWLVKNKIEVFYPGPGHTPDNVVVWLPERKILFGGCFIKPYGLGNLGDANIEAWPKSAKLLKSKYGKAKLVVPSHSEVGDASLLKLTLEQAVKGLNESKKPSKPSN

As for `CC(C)(O/N=C(\C(=O)N[C@@H]1C(=O)N2C(C(=O)[O-])=C(C[n+]3ccccc3)CS[C@H]12)c1csc(N)n1)C(=O)O` [CAZ, ceftazidime], the MIC in data set [1] was determined as 1 µg/mL (≈ 1.83 µM); in data set [2] it was 0.5 µg/mL (≈ 0.915 µM); in data set [3] it was 64 µg/mL (≈ 117 µM).

As to `Nc1nc2c(-c3ccc(S(=O)(=O)N4CCN(CCO)CC4)c(S(N)(=O)=O)c3-c3nnn[nH]3)cccc2s1.O=C(O)C(F)(F)F` [Example 92, 4-((4-(2-aminobenzo[d]thiazol-4-yl)-2-sulfamoyl-3-(1H-tetrazol-5-yl)phenyl)sulfonyl)-1-(2-hydroxyethyl) piperazin-1-ium 2,2,2-trifluoroacetate], the results for the IC50 against IMP-1 (fluorescence assay), on NDM-1 (fluorescence assay) and at VIM-1 (fluorescence assay) were 1.17 nM, 0.609 nM and 1.41 nM, respectively. Further, the “Escherichia coli expressing NDM-1 (CLB30016) MITC95” value in data set [4] was determined as 12.5 µM. Also, the Efflux ratio in [5] (imipenem at 2 μg/mL) came to 4.00. Moreover, the “P. aeruginosa expressing IMP-1, efflux + (MB9798) MITC95” value in [5] (setting [11]) stood at 25 µM. Further, the “P. aeruginosa expressing IMP-1, efflux − (MB9799) MITC95” value in [6] was 6.25 µM.

In the case of `C[N+]1(CCN)CC[C@@H](NS(=O)(=O)c2ccc(-c3cccc4[nH]c(N)nc34)c(-c3nn[nH]n3)c2S(N)(=O)=O)C1` (stereo partly drawn) [Example 248, (3R)-3-{[4-(2-amino-1H-1,3-benzodiazol-4-yl)-2-sulfamoyl-3-(2H-1,2,3,4-tetrazol-5-yl)benzene]sulfonamido}-1-(2-aminoethyl)-1-methylpyrrolidin-1-ium; methaneperoxoate], in data set [7], the “Klebsiella pneumoniae (VIM-1) MITC95” value stood at 0.7813 µM. In data set [5] (setting [11]), the “P. aeruginosa expressing IMP-1, efflux + (MB9798) MITC95” value came out at 0.7813 µM. Moreover, the “P. aeruginosa expressing IMP-1, efflux − (MB9799) MITC95” value in data set [6] was determined as 0.7813 µM.

In the case of `NCCNS(=O)(=O)c1ccc(-c2cccc(NC[C@H](O)CN)c2)c(-c2nn[nH]n2)c1S(N)(=O)=O` [Example 351, (R)-3′-((3-amino-2-hydroxypropyl)amino)-N4-(2-aminoethyl)-2-(2H-tetrazol-5-yl)-[1,1′-biphenyl]-3,4-disulfonamide], the “Escherichia coli (NDM-1) MITC95” value in [4] turned out to be 0.7813 µM. Besides, the “Klebsiella pneumoniae (VIM-1) MITC95” value in data set [7] was found to be 1.563 µM. In addition, in data set [8], the “Serratia marcescens (IMP-1) MITC95” value came out at 1.563 µM. Also, in data set [5] (imipenem at 2 μg/mL), the Efflux ratio was 2.00.

`NCCNS(=O)(=O)c1ccc(-c2cccc(NC[C@@H](O)CN)c2)c(-c2nn[nH]n2)c1S(N)(=O)=O` [Example 352, (S)-3′-((3-amino-2-hydroxypropyl)amino)-N4-(2-aminoethyl)-2-(2H-tetrazol-5-yl)-[1,1′-biphenyl]-3,4-disulfonamide]: in [4], the “Escherichia coli (NDM-1) MITC95” value was 0.7813 µM. Besides, in [7], the “Klebsiella pneumoniae (VIM-1) MITC95” value worked out at 1.563 µM. In addition, the “Serratia marcescens (IMP-1) MITC95” value in data set [8] came to 1.563 µM. The Efflux ratio in [5] (imipenem at 2 μg/mL) was found to be 2.00.

Take `NCCNS(=O)(=O)c1ccc(-c2cccc(SC[C@H](O)CN)c2)c(-c2nn[nH]n2)c1S(N)(=O)=O` [Example 356, (R)-3′-((3-amino-2-hydroxypropyl)thio)-N4-(2-aminoethyl)-2-(2H-tetrazol-5-yl)-[1,1′-biphenyl]-3,4-disulfonamide]: the “Escherichia coli (NDM-1) MITC95” value in data set [4] was found to be 0.7813 µM. In addition, the “Klebsiella pneumoniae (VIM-1) MITC95” value in data set [7] was found to be 0.7813 µM. In addition, the “Serratia marcescens (IMP-1) MITC95” value in [8] was 0.7813 µM. For the same molecule, the Efflux ratio in data set [5] (imipenem at 2 μg/mL) is on record as 2.00.

Regarding `NCCNS(=O)(=O)c1ccc(-c2cccc(SC[C@@H](O)CN)c2)c(-c2nn[nH]n2)c1S(N)(=O)=O` [Example 357, (S)-5′-(3-amino-2-hydroxypropylthio)-N4-(2-aminoethyl)-2-(2H-tetrazol-5-yl)biphenyl-3,4-disulfonamide], the “Escherichia coli (NDM-1) MITC95” value in data set [4] amounted to 0.7813 µM. In data set [7], the “Klebsiella pneumoniae (VIM-1) MITC95” value was found to be 0.7813 µM. In data set [8], the “Serratia marcescens (IMP-1) MITC95” value stood at 0.7813 µM. For the same molecule, the Efflux ratio in data set [5] (imipenem at 2 μg/mL) came to 2.00.

For the molecule `NC[C@H](CO)NS(=O)(=O)c1ccc(-c2ccnc(N)c2)c(-c2nn[nH]n2)c1S(N)(=O)=O` [Example 362, (R)—N1-(1-amino-3-hydroxypropan-2-yl)-4-(2-aminopyridin-4-yl)-3-(2H-tetrazol-5-yl)benzene-1,2-disulfonamide], the “Escherichia coli (NDM-1) MITC95” value in data set [4] amounted to 1.563 µM. The “Klebsiella pneumoniae (VIM-1) MITC95” value in [7] came out at 3.125 µM. Moreover, the “Serratia marcescens (IMP-1) MITC95” value in [8] came to 1.563 µM. In data set [5] (imipenem at 2 μg/mL), the Efflux ratio is given as 2.00.

`NCc1nc2c(-c3ccc(S(=O)(=O)N[C@@H](CN)CO)c(S(N)(=O)=O)c3-c3nn[nH]n3)cccc2[nH]1` [Example 379, (S)—N^1-(1-amino-3-hydroxypropan-2-yl)-4-(2-(aminomethyl)-1H-benzo[d]imidazol-4-yl)-3-(2H-tetrazol-5-yl)benzene-1,2-disulfonamide]: the “Escherichia coli (NDM-1) MITC95” value in [4] came to 1.563 µM. Further, the “Klebsiella pneumoniae (VIM-1) MITC95” value in data set [7] worked out at 1.563 µM. Besides, in data set [8], the “Serratia marcescens (IMP-1) MITC95” value stood at 1.563 µM. Besides, the Efflux ratio in [5] (imipenem at 2 μg/mL) came to 2.00.

For the molecule `NC[C@@H](CO)NS(=O)(=O)c1ccc(-c2cccc(N)n2)c(-c2nn[nH]n2)c1S(N)(=O)=O` [Example 382, (S)—N1-(1-amino-3-hydroxypropan-2-yl)-4-(6-aminopyridin-2-yl)-3-(2H-tetrazol-5-yl)benzene-1,2-disulfonamide], the “Escherichia coli (NDM-1) MITC95” value in data set [4] is 1.563 µM. In [7], the “Klebsiella pneumoniae (VIM-1) MITC95” value worked out at 3.125 µM. For the same molecule, the “Serratia marcescens (IMP-1) MITC95” value in data set [8] worked out at 1.563 µM. The Efflux ratio in data set [5] (imipenem at 2 μg/mL) was found to be 1.00.

On to `NC[C@H](O)CNS(=O)(=O)c1ccc(-c2ccnc(N)c2)c(-c2nn[nH]n2)c1S(N)(=O)=O` [Example 417, (S)-N^1-(3-amino-2-hydroxypropyl)-4-(2-aminopyridin-4-yl)-3-(2H-tetrazol-5-yl)benzene-1,2-disulfonamide], for which the IC50 on IMP-1 was 1.28 nM; against NDM-1 it was 0.385 nM. The “Concentration of metallo-β-lactamase inhibitor which restores susceptibility of efflux + (MB9798) strain to imipenem” value in data set [5] (imipenem at 2 μg/mL, in the presence of a class A, C, D serine β-lactamase inhibitor closely related to relebactam, efflux + strain MB9798) came to 1.563. The “Concentration of metallo-β-lactamase inhibitor which restores susceptibility of efflux − (MB9799) strain to imipenem” value in [6] (imipenem at 2 μg/mL, in the presence of a class A) is listed as 0.7813.

Take `CCN1CCN(C(=O)N[C@@H](C(=O)N[C@@H]2C(=O)N3[C@@H]2SC(C)(C)[C@@H]3C(=O)O)c2ccccc2)C(=O)C1=O` [Pipercillin, piperacillin]: the MIC in data set [1] is 2 µg/mL (≈ 3.86 µM); in data set [2] it was 1 µg/mL (≈ 1.93 µM); in data set [9], 4 µg/mL (≈ 7.73 µM); in data set [10] it was 4 µg/mL (≈ 7.73 µM).

With “(R)-4-(1-(2-aminoethyl)-1H-benzo[d][1,2,3]triazol-4-yl)-N1-(pyrrolidin-3-yl)-3-(2H-tetrazol-5-yl)benzene-1,2-disulfonamide yl)benzene-1,2-disulfonamide [Example 289]”, the IC50 at IMP-1 stood at 1.22 nM; against NDM-1, 0.249 nM; against VIM-1, 0.104 nM. For the same molecule, in data set [4], the “Escherichia coli (NDM-1) MITC95” value was 0.7813 µM. Besides, in [7], the “Klebsiella pneumoniae (VIM-1) MITC95” value stood at 1.563 µM. Moreover, the “Serratia marcescens (IMP-1) MITC95” value in data set [8] was 1.563 µM. The Efflux ratio in [5] (imipenem at 2 μg/mL) is given as 2.00. The “P. aeruginosa expressing IMP-1, efflux + (MB9798) MITC95” value in data set [5] (setting [11]) stood at 1.563 µM. For the same molecule, the “P. aeruginosa expressing IMP-1, efflux − (MB9799) MITC95” value in [6] was 0.7813 µM.

The values above are taken from US10544130B2, “Metallo-beta-lactamase inhibitors” (priority 2015, dated 2020).
